Assay results published in patent publication US11433012B2, “Peptides for increasing melanin in melanocytes” (Conopco, Inc., priority 2017, dated 2022).
Peptide text beside a SMILES is read from it.

Experiments:
[1] = test system: Neonatal foreskin primary human epidermal melanocytes; assay: Melanin content assay (OD405 nm of cell lysate); assay type: cell-based; details: for % Melanin / OD405 nm / % Increase in Melanin / Normalized melanin content / Normalized melanin content at 0.25 µM: 72 hours; for Normalized melanin content at 0.25 µM: Homo sapiens, Melanocyte, read-out: Normalized melanin content, 100*(% Melanin Content)/(% Cellular viability); for Increase in melanin content of melanocytes (in words): data of Table 2
Method: (§1) All test compounds were purchased from SIGMA-ALDRICH as stocks of 10 mM in 100% DMSO. They were tested at various concentrations in cell culture (see below). Forskolin (SIGMA Cat. #F6886) and IBMX (SIGMA Cat. #I5879) were used as reference comparators, as they have been reported to increase melanin content. Neonatal foreskin primary human epidermal melanocytes were procured from Cascade Biologicals (labelled passage P0). Melanocytes were maintained in Medium 254CF (Cascade Cat. #M-254CF-500) supplemented with human melanocyte growth supplement (Cascade; Cat. #S-002-5), hereafter referred to as MGM. Cells were maintained at 37° C. in a humidified incubator with 5% CO2 atmosphere.
(§2) 50,000 cells were seeded in 24 well plate in MGM; after 24 hours, cultures were treated with various concentrations of the test materials and left undisturbed for a further period of 72 hours. Comparative vehicle controls of 0.25% (v/v) DMSO were also set up in parallel, simultaneously. At the end of the incubation period, cell viability was determined using the calcein method.
After calcein fluorescence readings were obtained, cells were drained and added fresh 125 μl of 1N NaOH (in 10% DMSO) per well. Cells were lysed by resuspension and incubation (60° C./1 hour). Then this lysate was transferred to a fresh […] and measured OD405 nm in a TECAN M1000 plate reader (estimate of relative melanin content).
(§3) Calcein fluorescence values were ratio converted in 0 to 100 scale (% viability), with 100 representing the value of the 0.25% DMSO sample. % Melanin content was calculated as the ratio between OD405nm value of any sample to that of DMSO reference sample. Normalized melanin content value was then calculated as 100*(% Melanin Content)/(% Cellular viability).
The percentage Increase in melanin content was estimated as [(Normalized melanin content)−100]

[2] = test system: Neonatal foreskin primary human epidermal melanocytes; assay: Cell viability by the calcein method; assay type: cell-based
Method: as §1, §2
Briefly, cell culture spent media was removed and cells washed once with 0.4 ml of 1×PBS—Ca—Mg solution. Fresh 1 μM calcein-AM was added (0.2 ml/well), including to control wells without cells. Plates were covered with aluminium foil and incubated for 30 minutes. at 37° C. in the regular CO2 incubator. Calcein fluorescence was then measured (λmax 490 nm and λmax 520 nm) in TECAN® M1000 Infinite series plate reader.
as §3

Tyrosinase = molecular target: T1, Tyrosinase (Homo sapiens, UniProt P14679); assay: Tyrosinase assay; assay type: biochemical; details: 0.25 μM
T1 sequence (P14679 19-529): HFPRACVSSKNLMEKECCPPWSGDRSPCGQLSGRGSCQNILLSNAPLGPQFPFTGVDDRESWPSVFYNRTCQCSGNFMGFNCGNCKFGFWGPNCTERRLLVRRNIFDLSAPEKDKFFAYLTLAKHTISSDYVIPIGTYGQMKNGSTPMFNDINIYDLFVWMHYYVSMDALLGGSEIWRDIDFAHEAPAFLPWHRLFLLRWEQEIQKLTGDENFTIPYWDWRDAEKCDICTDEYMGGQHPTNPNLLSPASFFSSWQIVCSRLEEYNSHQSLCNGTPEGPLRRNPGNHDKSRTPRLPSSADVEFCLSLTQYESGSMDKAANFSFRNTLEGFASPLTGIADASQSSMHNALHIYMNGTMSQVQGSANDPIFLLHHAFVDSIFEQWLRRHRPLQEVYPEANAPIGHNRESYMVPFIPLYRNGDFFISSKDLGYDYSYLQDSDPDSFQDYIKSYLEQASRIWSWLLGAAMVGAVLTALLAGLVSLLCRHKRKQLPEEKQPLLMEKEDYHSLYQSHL

[3] = 0.25 μM, relative to DMSO control
[4] = 0.25 μM, normalized melanin content minus 100

Row | % increase in Tyrosinase activity (Tyrosinase) [%] | Structure (SMILES) | % Melanin [1, 3] [%] | OD405 nm ([1]; 0.25 μM, control 0.113) | % Increase in Melanin [1, 4] [%] | % Increase in Melanin ([1]; 3.125 μM) [%] | % Melanin ([1]; 3.125 μM) [%] | Normalized melanin content ([1]; 3.125 μM) | OD405 nm ([1]; 3.125 μM, control 0.165) | % Increase in Melanin ([1]; 12.5 μM) [%] | % Melanin ([1]; 12.5 μM) [%] | Normalized melanin content ([1]; 12.5 μM) | OD405 nm ([1]; 12.5 μM, control 0.165) | % Increase in Melanin ([1]; 25 μM) [%] | % Melanin ([1]; 25 μM) [%] | Normalized melanin content ([1]; 25 μM) | OD405 nm ([1]; 25 μM, control 0.165) | Normalized melanin content at 0.25 µM ([1]; 0.25 μM) [%] | % Viability ([2]; human, 72 h, 0.25 μM) [%] | % Viability ([2]; human, 72 h, 12.5 μM) [%] | % Viability ([2]; human, 72 h, 25 μM) [%] | also measured
1 | 2.0 | CC(C)[C@H](NC(=O)OCc1ccccc1)C(=O)N[C@@H](Cc1ccc(O)cc1)C(N)=O [Compound 2, Benzyl (1S)-1-({[(1S)-2-amino-1-(4-hydroxybenzyl)-2-oxoethyl]amino}carbonyl)-2-methylpropylcarbamate] (HELM PEPTIDE1{[O=C(OCc1ccccc1)[*:2]].V.Y.[am]}$$$$V2.0) | 110.6 | 0.125 | 36.5 | 23.2 | 111.5 | 123.2 | 0.184 | 26.5 | 121.2 | 126.5 | 0.200 | 42.2 | 131.5 | 142.2 | 0.217 | 136 | 81 | 95.8 | 92.5 | % Increase in Melanin ([1]; 1.5 μM): 16.9%; % Melanin ([1]; 1.5 μM): 106.7%; Normalized melanin content ([1]; 1.5 μM): 116.9; OD405 nm ([1]; 1.5 μM, control 0.165): 0.176; % Increase in Melanin ([1]; 6.25 μM): 14.7%; % Melanin ([1]; 6.25 μM): 114.5%; Normalized melanin content ([1]; 6.25 μM): 114.7; OD405 nm ([1]; 6.25 μM, control 0.165): 0.189; % Increase in Melanin ([1]; 50 μM): 25.8%; % Melanin ([1]; 50 μM): 126.6%; Normalized melanin content ([1]; 50 μM): 125.8; OD405 nm ([1]; 50 μM, control 0.165): 0.209; Increase in melanin content of melanocytes (in words) [1]: substantial increase in melanin content; Extent of increase in melanin content versus reference molecules (in words) ([1]; data of Table 3): comparable to known standard reference molecules (Forskolin and IBMX); % Viability ([2]; human, 72 h, 1.5 μM): 91.3%; % Viability ([2]; human, 72 h, 3.125 μM): 90.5%; % Viability ([2]; human, 72 h, 6.25 μM): 99.8%; % Viability ([2]; human, 72 h, 50 μM): 100.6%
2 | 1.8 | CSCC[C@H](NC(=O)OCc1ccccc1)C(=O)N[C@@H](Cc1c[nH]c2ccccc12)C(=O)O [Compound 3, (2S)-2-{[(2S)-2-{[(benzyloxy)carbonyl]amino}-4-(methylthio)butanoyl]amino}-3-(1H-indol-3-yl)propanoic acid] (HELM PEPTIDE1{[O=C(OCc1ccccc1)[*:2]].M.W}$$$$V2.0) | 106.2 | 0.120 | 7.3 | – | – | – | – | – | – | – | – | – | – | – | – | 107 | 99 | – | – | Increase in melanin content of melanocytes (in words) [1]: not
3 | 0.8 | C[C@@H](O)[C@H](NC(=O)OCc1ccccc1)C(=O)N[C@@H](Cc1ccc(O)cc1)C(N)=O [Compound 4, Benzyl (1S,2R)-1-({[(1S)-2-amino-1-(4-hydroxybenzyl)-2-oxoethyl]amino}carbonyl)-2-hydroxypropylcarbamate.] (HELM PEPTIDE1{[O=C(OCc1ccccc1)[*:2]].T.Y.[am]}$$$$V2.0) | 102.7 | 0.116 | −6.6 | – | – | – | – | – | – | – | – | – | – | – | – | 93.4 | 110 | – | – | –
4 | – | C=C[C@@]1(C)CC(=O)[C@]2(O)[C@@]3(C)[C@@H](O)CCC(C)(C)[C@@H]3[C@H](O)[C@H](OC(C)=O)[C@@]2(C)O1 [Forskolin, reference compound] | – | – | – | – | – | – | – | – | – | – | – | – | – | – | – | – | – | – | – | % Increase in Melanin ([1]; 2.5 μM): 16.6%; % Melanin ([1]; 2.5 μM): 111.5%; Normalized melanin content ([1]; 2.5 μM): 116.6; OD405 nm ([1]; 2.5 μM, control 0.165): 0.184; % Increase in Melanin ([1]; 5 μM): 29.2%; % Melanin ([1]; 5 μM): 122.5%; Normalized melanin content ([1]; 5 μM): 129.2; OD405 nm ([1]; 5 μM, control 0.165): 0.202; % Increase in Melanin ([1]; 10 μM): 36.7%; % Melanin ([1]; 10 μM): 123.7%; Normalized melanin content ([1]; 10 μM): 136.7; OD405 nm ([1]; 10 μM, control 0.165): 0.204; % Viability ([2]; 2.5 μM, 72 hours): 95.6%; % Viability ([2]; 5 μM, 72 hours): 94.8%; % Viability ([2]; 10 μM, 72 hours): 90.5%
5 | – | CC(C)Cn1c(=O)n(C)c(=O)c2[nH]cnc21 [IBMX, 3-isobutyl-1-methylxanthine, reference compound] | – | – | – | – | – | – | – | 16.6 | 116.7 | 116.6 | 0.193 | 24.8 | 118.8 | 124.8 | 0.196 | – | – | 100.1 | 95.2 | % Increase in Melanin ([1]; 50 μM): 28.2%; % Melanin ([1]; 50 μM): 116.7%; Normalized melanin content ([1]; 50 μM): 128.2; OD405 nm ([1]; 50 μM, control 0.165): 0.193; % Viability ([2]; human, 72 h, 50 μM): 91.0%

Row | Structure (SMILES) | % increase in Tyrosinase activity (Tyrosinase) [%] | % Melanin [1, 3] [%] | OD405 nm ([1]; 0.25 μM, control 0.113) | % Increase in Melanin [1, 4] [%] | % Increase in Melanin ([1]; 3.125 μM) [%] | % Melanin ([1]; 3.125 μM) [%] | Normalized melanin content ([1]; 3.125 μM) | OD405 nm ([1]; 3.125 μM, control 0.165) | % Increase in Melanin ([1]; 12.5 μM) [%] | % Melanin ([1]; 12.5 μM) [%] | Normalized melanin content ([1]; 12.5 μM) | OD405 nm ([1]; 12.5 μM, control 0.165) | % Increase in Melanin ([1]; 25 μM) [%] | % Melanin ([1]; 25 μM) [%] | Normalized melanin content ([1]; 25 μM) | OD405 nm ([1]; 25 μM, control 0.165) | Normalized melanin content at 0.25 µM ([1]; 0.25 μM) [%] | % Viability ([2]; human, 72 h, 0.25 μM) [%] | % Viability ([2]; human, 72 h, 12.5 μM) [%] | % Viability ([2]; human, 72 h, 25 μM) [%] | also measured
6 | O=C(N[C@@H](CO)C(=O)N[C@@H](Cc1ccc(O)cc1)C(=O)OCc1ccccc1)OCc1ccccc1 [Compound 1, Benzyl (2S)-2-[((2S)-2-{[(benzyloxy)carbonyl]amino}-3-hydroxypropanoyl)amino]-3-(4-hydroxyphenyl)propanoate.] (HELM PEPTIDE1{[O=C(OCc1ccccc1)[*:2]].S.Y.[c1ccc(CO[*:1])cc1]}$$$$V2.0) | 3.5 | 135.4 | 0.153 | 26.5 | 17.9 | 107.3 | 117.9 | 0.177 | 33.3 | 118.2 | 133.3 | 0.195 | 34.0 | 120.6 | 134.0 | 0.199 | 126 | 107 | 88.7 | 90.0 | % Increase in Melanin ([1]; 6.25 μM): 20.6%; % Melanin ([1]; 6.25 μM): 115.2%; Normalized melanin content ([1]; 6.25 μM): 120.6; OD405 nm ([1]; 6.25 μM, control 0.165): 0.190; % Viability ([2]; human, 72 h, 3.125 μM): 91.0%; % Viability ([2]; human, 72 h, 6.25 μM): 95.5%
